What was measured:
[1] = system: Amaranthus retroflexus; assay: Test 1 greenhouse, preemergence; format: in vivo; details: 21 days, scale 0-100
Description: (§1) Seeds of Bromus tectorum, Kochia scoparia, Salsoa kali, Avena fatua, Convolvulus arvensis, Secale cereale, Setaria viridis and Triticum aestivum were placed in 26-cm plastic pans containing a pasteurized sandy loam soil (pH 6.5, 1% organic matter). Plantings were maintained in the greenhouse for 18-28 days at which time the postemergence treatments were applied using a nonphytotoxic solvent as the carrier for the herbicide. The preemergence segment of the test was seeded immediately before herbicide application using Bromus tectorum, Kochia scoparia, Polygonum convolvulus, Salsoa kali, Avena fatua, Convolvulus arvensis, Secale cereale, Setaria viridis, Aegilops cylindrica, Amaranthus retroflexus, Chenopodium album, Hordeum vulgare, Triticum aestivum, Sorghum bicolor, and Zea mays. All treatments were maintained in the greenhouse for an additional 21 days at which time visual assessment of weed control was determined using a scale of 0 to 100 for each species where 0 represented no control and 100 represented complete control.

[2] = system: Chenopodium album; assay: Test 1 greenhouse, preemergence; format: in vivo; details: 21 days, scale 0-100
Description: as §1

[3] = system: Setaria viridis; assay: Test 1 greenhouse, preemergence; format: in vivo; details: 21 days, scale 0-100
Description: as §1

[4] = system: Sugarcane; assay: Test 5 sugarcane injury and weed control, postemergence; format: in vivo, Saccharum spp.; details: scale 0-100
Description: (§2) Sugarcane (Saccharum spp.) cuttings which had been pre-sprouted were planted in 15-cm plastic pots. Narrowleaf panicum (Panicum maximum), large crabgrass (Digitaria sanguinalis), guineagrass (P. maximum) and itchgrass (Rottboellia exaltata) were seeded in individual 15-cm plastic pots.
(§3) The pots were treated postemergence when the plants had 3 to 4 leaves with 2 to 3 tillers with Compound I formulated in a non-phytotoxic carrier made up of acetone-humectant-water-surfactant (22:1:1:0.05 v/v). The degree of crop injury and weed control was visually rated 27 days after treatment (DAT). Plant injury ratings are based on the scale of 0 to 100 where 0 = no effect, 20 = minimal injury and 100 = complete control.

[5] = system: Guinea Grass; assay: as above; format: in vivo, P. maximum; details: scale 0-100
Description: as §2, §3

[6] = system: Dandelion; assay: Test 7 postemergence; format: in vivo, Taraxacum spp; details: scale 0-100
Description: Individual 11.4-cm plastic pots filled with planting medium were seeded with rape, wild radish (Raphanus raphanistruna). tansy mustard (Descurainia pinnata), ball mustard (Neslia paniculata), black mustard (Brassica nigra), yellow mustard, brown mustard, lentils, safflower, flax, sunflower, peanut, vetch, alfalfa, field bean, pea, violet (Viola spp), Kochia (Kochia spp), Russian thistle (Salsola spp), Matricaria spp, groundsel (Senecio spp), shepherdspurse (Capsella bursa-pastoris), nightshade (Solanum spp), sowthistle (Sonchus spp), sugar beet, wheat, "Bonanza" barley and "Morex" barley, Kentucky bluegrass (Poa pratensis), red clover (Trifolium pratense), dandelion (Taraxacum spp) and buckhorn plantain (Plantago lanceolata).
Plants were treated postemergence with the compound formulated with a non-phytotoxic carrier. Plants were visually rated 18 days after treatment (DAT). Response ratings were based on the scale of 0 to 100 where 0 = no effect, 20 = minimal injury and 100 = complete control.

[7] = system: Pigweed; assay: Test 9 postemergence; format: in vivo, Amaranthus spp; details: 16 g/ha, scale 0-100
Description: Plastic windowsill pots containing planting medium were seeded with bahiagrass, bindweed (Convolvulus spp), guinea grass (Panicum maximum), large crabgrass (Digitaria sanguinalis) and pigweed (Amaranthus spp). Individual 15-cm plastic pots contained sandbur (Cenchrus echinatus), Mikania cordata, Boston fern (Nephrolepis exalata), quackgrass (Agropyron repens), elephantgrass (Pennisetum purpureum) and sowthistle (Sonchus spp) plants.
Plants were treated postemergence with Compound I formulated in a non-phytotoxic solvent. Plants were visually rated 22 days after treatment (DAT). Injury and weed control ratings were based on the scale of 0 to 100 where 0 = no effect, 20 = minimal control and 100 = complete control.

[8] = system: Wild oats; assay: Test 10 postemergence safety to crops and weed control; format: in vivo, Avena fatua; details: 16 g/ha, scale 0-100
Description: (§4) The object of these tests was to evaluate the compound of this invention for postemergence safety to crops and weed control. Seedling and budded Macedine grapes were grown in 11.4-cm pots. Flax, green foxtail (Setaria viridis), "Morex" barley, wild oats (Avena fatua), "Era" wheat, annual ryegrass (Lolium multiflorum), wild radish (Raphanus raphanistrum), rape, sunflower, chickweed (Stellaria media) and wild buckwheat (Polygonum convolvulus) were seeded in windowsill pots.
(§5) The plants were sprayed postemergence with Compound I in a non-phytotoxic solvent. Plants were visually rated 15 and 27 days after treatment (DAT). Injury and weed control ratings were based on the scale of 0 to 100 where 0 = no effect, 20 minimal control and 100 = complete control.

[9] = system: Wild buckwheat; assay: as above; format: in vivo, Polygonum convolvulus; details: 16 g/ha, scale 0-100
Description: as §4, §5

[10] = system: Sandbur; assay: Test 11 citrus pots, preemergence to the weeds; format: in vivo, Cenchrus echinatus; details: Preemergence 32 g/ha; 0.25% X-77 surfactant; scale 0-100
Description: (§6) Budded citrus seedlings were planted in 30-liter plastic pots which were also seeded with sandbur, guineagrass, narrowleaf panicum, common ragweed, yellow nutsedge, purple nutsedge and bindweed. Compound I was applied preemergence and postemergence to the weeds. Treatments were sprayed to simulate the trunk-to-trunk herbicide application method used in some citrus groves. The compound was also applied postemergence to weeds grown in windowsill flats. The flats were filled with planting medium and seeded with morningglory (Ipomoea spp.). purple nutsedge (Cyperus rotundus), pigweed (Amaranthus spp.), bindweed (Convolvulus spp.), narrowleaf panicum (Panicum maximum), common ragweed (Ambrosia artemisiifolia), sandbur (Cenchrus echinatus), itchgrass (Rottboellia exaltata), johnsongrass (Sorghum halepense), guineagrass (Panicum maximum), smooth crabgrass (Digitaria ischaemum), broadleaf signalgrass (Brachiaria platyphylla), bermudagrass (Cynodon dactylon), goosegrass (Eleusine indica), large crabgrass (Digitaria sanguinalis) and yellow nutsedge (Cyperus esculentus).
(§7) The compound was formulated and sprayed with 0.25% X-77 surfactant in water. Plants were visually rated 21 and 29 days after treatment and compared with appropriate controls. Injury ratings were based on the scale of 0 to 100, where 0 indicates no effect, 20 indicates minimum effect and 100 indicates complete control. […]

[11] = system: Purple nutsedge; assay: Test 11 citrus pots, preemergence to the weeds; format: in vivo, Cyperus rotundus; details: Preemergence 32 g/ha; 0.25% X-77 surfactant; scale 0-100
Description: as §6, §7

[12] = system: Morningglory; assay: Test 11 windowsill flats, postemergence; format: in vivo, Ipomoea spp.; details: Postemergence 32 g/ha, 0.25% X-77 surfactant, scale 0-100
Description: as §6, §7

With COC(=O)c1cccnc1S(=O)(=O)NC(=O)Nc1nc(OC)cc(OC)n1 [Compound I, 2-[[(4,6-dimethoxypyrimidin-2-yl)aminocarbonyl]aminosulfonyl]-3-pyridinecarboxylic acid, methyl ester] the “visual assessment of weed control” value ([1]; 4 g/ha) was 70, the “visual assessment of weed control” value ([1]; 8 g/ha) was 90 and the “visual assessment of weed control” value ([1]; 16 g/ha) was 90. For the same molecule, the “visual assessment of weed control” value ([1]; 32 g/ha) was 100, the “visual assessment of weed control” value ([1]; 64 g/ha) was 100 and the “visual assessment of weed control” value ([1]; 125 g/ha) was 100. The “visual assessment of weed control” value ([2]; 4 g/ha) was 60, the “visual assessment of weed control” value ([2]; 8 g/ha) was 90 and the “visual assessment of weed control” value ([2]; 16 g/ha) was 90. For the same molecule, the “visual assessment of weed control” value ([2]; 32 g/ha) was 100, the “visual assessment of weed control” value ([2]; 64 g/ha) was 100 and the “visual assessment of weed control” value ([2]; 125 g/ha) was 100. The “visual assessment of weed control” value ([3]; 4 g/ha) was 20, the “visual assessment of weed control” value ([3]; 8 g/ha) was 30 and the “visual assessment of weed control” value ([3]; 16 g/ha) was 50. For the same molecule, the “visual assessment of weed control” value ([3]; 32 g/ha) was 70, the “visual assessment of weed control” value ([3]; 64 g/ha) was 90 and the “visual assessment of weed control” value ([3]; 125 g/ha) was 100. For the same molecule, the “Plant Injury Rating 27 DAT” value ([4]; 8 g/ha) was 10, the “Plant Injury Rating 27 DAT” value ([4]; 16 g/ha) was 20 and the “Plant Injury Rating 27 DAT” value ([4]; 32 g/ha) was 20. The “Plant Injury Rating 27 DAT” value ([4]; 64 g/ha) was 30, the “Plant Injury Rating 27 DAT” value ([5]; 8 g/ha) was 30 and the “Plant Injury Rating 27 DAT” value ([5]; 16 g/ha) was 70. For the same molecule, the “Plant Injury Rating 27 DAT” value ([5]; 32 g/ha) was 80, the “Plant Injury Rating 27 DAT” value ([5]; 64 g/ha) was 100 and the “Plant Injury Rating 18 DAT” value ([6]; 16 g/ha) was 100. For the same molecule, the “Plant Injury Rating 18 DAT” value ([6]; 32 g/ha) was 100, the “Plant Injury Rating 22 DAT” value [7] was 90 and the “Plant Injury Rating 15 DAT” value [8] was 100. For the same molecule, the “Plant Injury Rating 15 DAT” value [9] was 100, the Injury ratings [10] was 100 and the Injury ratings [11] was 100. The Injury ratings [12] was 90.

— patent EP0314302A2, “Herbicidal o-carbomethoxy-sulfonylureas” (E.I. DU PONT DE NEMOURS AND COMPANY, priority 1987, dated 1989)
